One experiment deals with T1, Mut-p53 (R175H p53) (Homo sapiens, UniProt P04637, R175H).
T1 construct: a hot spot full length mutant p53 Mut-p53 R175H (R175H p53); expressed in transfected cells; host or cells: H1299 (p53-null) cells stably overexpressing R175H p53; cell extract
Description: Sandwich ELISA for p53 conformation (PAb1620/PAb240 reactivity). The conditions noted are these: extract of H1299 cells overexpressing R175H p53; peptide 50 ng/ml, 2 hours. The format is biochemical. How it is done: To measure the conformational effect of the peptides on Mut-p53, a micro-titer plate was coated with either PAb240, PAb1620 or pAb421 (as a positive control and standard for total p53 protein, since the antibody used recognizes both WT and mutant conformations), overnight incubated, washed, blocked, and cell extracts (with or without peptides) were added for an additional 2 hours. After removal of extracts, plates were washed and incubated with the αp53-HRP conjugated Ab for the detection of p53 levels. A TMB (substrate of HRP) assay was performed and optical density was determined at 450 nm. WT p53 served as a positive control for reactivity with PAb1620, and Mut-p53 served as a negative control. The results are presented as the ratio of absorbance between the PAb1620 or PAb240 samples and the control […] sample. MCF7 and H1299-Mut-p53 (ts) A135V (TS) cells were used as positive controls for the WT p53 conformation (1620/240 ratio equals or exceeds 5:1).
96-well plates were coated using 3 different antibodies (1 type of antibody (Ab) in each well): PAb421 recognizes both conformations of p53 and binds to a C-terminus epitope; PAb240 recognizes mutant conformation of p53, binds to epitope within the core domain (amino acids 212-217) (Stephen, C. W. and D. P. Lane, Mutant conformation of p53. Precise epitope mapping using a filamentous phage epitope library. J. Mol. Biol., 1992. 225(3): p. 577-83) which is accessible to the Ab when the protein is partially denatured (for example, when the DBD is mutated); and PAb1620, which recognizes WT conformation of p53, binds to epitope with in the core domain (aa 156, 206-210), formed when folding is in WT conformation (Wang, P. L., F. Salt, and G. Winter, The ‘wild type’ conformation of p53: epitope mapping using hybrid proteins. Oncogene, 2001. 20(18): p. 2318-24).
Wells were incubated overnight (ON) with 100 μl Ab (5 μg/ml) in room temp (RT). The liquid was discarded, and the wells were washed 3 times with Phosphate buffered saline (PBS), 200 μl per each wash. Next, blocking with 200 μl of 5% bovine serum albumin (BSA) diluted in PBS in each well for 1.5 hours at room temperature (RT) was performed. Blocking buffer was discarded, followed by 3 washes in PBS as described above. Samples of mutant and WT p53 proteins (100 μl, 10 μg/ml), together with control peptides pCAP-710 (LPNPPER, SEQ ID NO:328) and pCAP-1220 ([…], SEQ ID NO:368) (5 μg/ml, Sigma Aldrich, or with test peptides 1-153 (5 μg/ml), were incubated for 1.5 hours together, and then added to the wells. Samples were rotated and incubated for 1 hour at RT. Samples were discarded, following 4 washes as described above, using Trisphosphate buffered saline (TPBS). Next, horseradish peroxidase (HRP) conjugated streptavidin p53 antibody (10 μg/ml HAF1355 (R&D)) was added to the wells and incubated at RT for 1 hour. After the plate was washed 3 times in TPBS, TMB substrate solution (50 μl each well, Thermo, (Cat. No. ES001-1L-K)) was added and incubated at 37° c. for 20 min. The reaction was stopped with 2M sulfuric acid (50 μl). The absorbance was measured at 450 nm with a spectrophotometer. Protein concentration was determined by dividing the absorbencies of each sample to the absorbance of Ab 421 samples.
The first screening strategy was based on ELISA. A version of sandwich ELISA was used to examine the effect of the lead test peptides on p53 conformation. To measure the conformational effect of the peptides on Mut-p53, a micro-titer plate was coated with PAb240, PAb1620 or pAb421 (as a positive control), and then the reactivity of p53 to these antibodies was examined. WT p53 served as a positive control for reactivity with PAb1620, and Mut-p53 served as a negative control. To examine the effect of a tested peptide it was added to a solution containing Mut-p53 and change in reactivity to either Ab was tested. […] Several ELISA experiments using different cell extracts were performed. […]

Experiment [1] has as its system SW-480 colon carcinoma cells (p53 R273H and P309S). Nature of the experiment: Xenograft model, Preclinical Trial #3 (Table 9 experiment 3). Format: in vivo, CD1 nude/nude mice. How it is done:
FIGS. 21A, 21B, 21C, 21D and 21E illustrate the in vivo effect of the indicated peptides in a mouse xenograft model. SW-480 colon cancer cells expressing endogenous mutant p53 and stably expressing luciferase were injected into the left hip of CD1 nude/nude mice. When tumors reached visible size, bioluminescence (indicative of the number of cancer cells) was measured with the IVIS200 system.
After observing the highly significant result in the MDA-MB-231 experiment, additional studies were aimed to extend the observation and examine cells from a different origin, harboring a different p53 point mutation. The SW-480 colon carcinoma cell line harbors two endogenous p53 mutations: the R273H and P309S. SW-480 cells were stably infected with the luciferase reporter gene, and 10^6 cells were subcutaneously injected into nude mice. The experiment contained 15 mice that were randomly divided during the experiment into 3 groups: a control group treated with a cocktail of 3 pCAPs previously proven ineffective, a group treated with a cocktail of 3 effective pCAP (250, 308, 325) and finally a group treated with a single peptide, the pCAP-325. The duration of the SW-480 experiment was 42 days from the point of cell implantation. The time line is relative to the first day of treatment which is marked as day 0. FIGS. 21A-E show tumor growth over time in all three groups as measured by live imaging in the IVIS.
4 pre-clinical experiments have already been performed thus far, using the xenograft model of Mut-p53 expressing cells transfected with a luciferase expression vector, allowing tumor monitoring by live imaging. Two experiments were performed with MDA-MB-231 triple negative breast cancer cells (p53 R280K), one experiment used SW-480 colon cancer carcinoma cells (p53 R273H) and another experiment used SKBR3 breast cancer cells (p53 R175H). In each experiment, cells from the corresponding cell line were injected subcutaneously and allowed the formation of well-established tumors visible both by eye and by live imaging (typically 2-3 weeks). A treatment regimen was then administered, composed of intra-tumor injection of either effective lead peptides or control peptides (showing no activity in-vitro) every three days for a period of up to 42 days.

Experiment [2] relates to WI-38 fibroblasts overexpressing R175H p53 (WI38-175). Nature of the experiment: Crystal violet viability assay. The format is cell-based. The conditions noted are these: 48 hours; much more prominent than in mNoxa-i control cells. How it is done: FIGS. 13A and 13B are bar graphs illustrating the effect of various tested peptides on the viability of cells expressing Mut-p53, as determine by crystal violet assay. WI-38 fibroblasts expressing endogenous WT p53 were infected with retroviruses expressing either mouse Noxa shRNA (WI38-m-Noxa-i) as a nonspecific control or the R175H p53 mutant for stable overexpression of mutant p53 (WI38-175). The cells (WI38-m-Noxa-i or WI38-175) were seeded at 3000 cells per well in 96-well plates. Tested peptides were added to the cells. Different concentrations of etoposide (cytotoxic drug, 4′-Demethyl-epipodophyllotoxin 9-[4,6-O—(R)-ethylidene-beta-D-glucopyranoside], 4′-(dihydrogen phosphate) were used as positive control for cell death and as a standard reference curve to assess the effect of tested peptides. 48 hours after treatment, cells were washed with PBS to exclude dead cells and debris, and cells that remained attached to the plate were stained with crystal-violet for 30 minutes. Crystal violet was removed and cells were washed 4 times with PBS to remove residual crystal violet. Then, the stained cells were dissolved in 10% acetic acid and plates were taken for optical density measurement at 595 nM (optimal for crystal violet). The bar graphs of FIGS. 13A and 13B show the optical density reads at 595 nm, which reflect the number of cells in the plate after treatment, normalized to the non-treated (NT) samples.
Cells were cultured in 96 wells plates with 2500-4000 cells/well in 0.1 ml and incubated overnight at 37° C. in order to adhere to the plate. Serial dilutions of different peptides (0.5 μg/ml) were added in 0.1 ml aliquots and the plates incubated for additional 48 h at 37° C. Then medium was removed and cell lysis was determined by staining the cells with crystal violet (0.5%) in methanol/water (1:4, v/v), 50 μl each well, for 10 min, followed by 3 washes with PBS. Afterwards, 10% acetic acid (50 μl) was added to each well and shaken for 10 min. Then, automatic plate reading was performed at 595 nm.
An important indication for the reactivating peptides activity is their effect in-vivo on cancer cells that express Mut-p53. In particular, reactivating peptides that can cause specifically Mut-p53-dependent death of cancer cells, with minimal toxic effects on normal cells are desired. A crystal-violet based viability assay, in which crystal-violet is employed to stain cells that adhere to the plate and therefore the amount of dye is proportional to cell number was used to determine the effect of the various test peptides on Mut-p53-dependent death.
Cells were plated in 96-well plates, at calibrated density that allows them to grow for 48 hours without reaching confluence. Peptides are added 6 hours later. Different concentrations of etoposide (cytotoxic drug) were used as positive control for cell death and as a standard reference curve to assess the effect of tested peptides. 48 hours after treatment, cells were washed with PBS to exclude dead cells and debris, and cells that remained attached to the plate were stained with crystal-violet for 30 minutes. Crystal-violet was removed and cells were washed with PBS 4 times to eliminate remains of crystal-violet. Then, the stained cells were dissolved in 10% acetic acid and plates were taken for optical density measurement at 595 nM (specific to crystal-violet).
FIGS. 13A and 13B illustrate a representative experiment of screening performed on 128 synthesized peptides. In this experiment, WI-38 fibroblasts were used. These cells express endogenous WT p53 and were further infected with a virus expressing either mouse Noxa shRNA, as a nonspecific control or the R175H p53 mutant for stable overexpression of mutant p53. Both of these sub-lines (mNoxa or R175H p53) were seeded at 3000 cells per well and treated as described above. […]

The subject of experiment [3] is ES2 ovarian carcinoma cells (Mut-p53, position 241). Description: Annexin-V/PI apoptosis assay by flow cytometry. The format is cell-based. The conditions noted are these: 12 ug/ml. The protocol:
FIGS. 17A, 17B, 17C and 17D illustrate representative experiments performed on ES2 ovarian carcinoma cells expressing Mut-p53 mutated at position 241 within the DBD. […] Cells were harvested and an apoptosis assay (FIGS. 17A and 17B) was performed using the Annexin-V staining kit (Roche, REF 11 988 549 001). Non-fixed cells were stained with both anti Annexin FITC conjugated antibody to detect apoptotic cells, and PI (propidium iodide) to stain dead cells, according to the manufacturer's instructions. Stained cells were then analyzed by flow cytometry. A total of 10,000 cells was counted for each sample and divided into four sub populations according to staining intensity; cells negative for both PI and Annexin (−PI, −Annexin) are termed live; cells negative for PI and positive for Annexin (−PI, +Annexin) are going through early stages of apoptosis; cells positive for PI and Annexin (+PI, +Annexin) are dead cells that underwent an apoptotic process; and cells positive for PI and negative for Annexin (+PI, −Annexin) are assumed as dead cells that died by a non-apoptotic process such as necrosis.
FIGS. 17A and 17B illustrate a representative experiments performed on ES2 ovarian carcinoma cells (FIGS. 17A-D) expressing Mut-p53 with a mutation at positions 241 within the DBD. […] Cells were harvested, and 60% of the cells were taken for Annexin-PI apoptosis assay and 40% for extraction of RNA, cDNA synthesis and real time PCR analysis. Apoptosis was assayed using the Annexin-V staining kit (Roche, REF 11 988 549 001). Non-fixed cells were stained with both anti Annexin FITC conjugated antibody to detect apoptotic cells, and PI (propidium-iodide) to stain dead cells permeable to the compound, according to the manufacturer's instructions. Stained cells were then analyzed by flow cytometry. A total of 10,000 cells was counted for each sample and divided into four subpopulations according to staining intensity: cells negative for both PI and Annexin (−PI, −Annexin) are termed live; cells negative for PI and positive for Annexin (−PI, +Annexin) are going through early stages of apoptosis; cells positive for PI and Annexin (+PI, +Annexin) are dead cells that underwent an apoptotic process; and cells positive for PI and negative for Annexin (+PI, −Annexin) are assumed to be dead cells that died a non-apoptotic death such as necrosis. […] Treatment with pCAPs 242 and 250 causes a rapid increase in apoptotic cells followed by cell death and after 5 hours of treatment 12% of cells are Annexin positive and about 7% are dead. After 16 and 24 hours of treatment with pCAP 250 the apoptotic population increases to about 27% and dead cells accumulate to 29% at 16h and 36% after 24h. […] CD95 and Btg-2 expression is elevated up to 6 fold over non-treated cells.
(A flow cytometer gives signals particle by particle.)

Where no end group is shown, it is not given here. The star is where a group is joined. Myristoyl = CCCCCCCCCCCCCC(=O)*

Regarding LRCLLLLIGRVG [pCAP-24], in the experiment with Mut-p53 (R175H p53), the “reactivity of R175H Mut-p53 towards PAb1620 and PAb240 (conformational change)” value is “increased reactivity of R175H Mut-p53 towards PAb1620 and decreased reactivity towards PAb240”.
In the case of “myr-RRIRDPRILLLHFD (Myristoyl-RRIRDPRILLLHFD) [pCAP-325]”, in experiment [1] (Experiment 3, SW-480), the “IVIS average ratio to day 0” value was 4.4%, the Samples average size worked out at 0.12 and the Samples average weight was 0.10. In addition, in experiment [1] (Experiment 3, SW-480, 10 samples per group), the “Number of total regression” value amounted to 2. Moreover, in experiment [1] (day 0 (first day of treatment)), the “log of luminescence intensity mean at day 0” value turned out to be 8.97. Also, the “average fold change in tumor size (from luminescence)” value in experiment [1] (day 0 to day 35) was determined as 0.043 fold. The same substance returned a tumor size decrease in experiment [1] (day 0 to day 35, inferred from log of luminescence intensity mean) of 95.6%. In addition, the “log of luminescence intensity mean at day 35” value in experiment [1] (day 35) came to 7.61. Further, in experiment [1] (p-value <0.05), the “size and weight of extracted tumors compared to control peptides” value was “significantly smaller in size and weight”.
Regarding ASWQALALYAAGW [pCAP-46], the “reduction in cell numbers, R175H p53 expressing WI-38 cells” value in experiment [2] is listed as “significant reduction in cell numbers”.
For the substance “myr-RRLIVRILKLPNPPER (Myristoyl-RRLIVRILKLPNPPER) [pCAP-242]”, the “apoptosis and cell death time course compared with pCAP 250” value in experiment [3] is “attenuated and slower”. In addition, in experiment [3] (after 5 hours of treatment), the Annexin positive cells stood at 12% and the dead cells result was “about 7%”.
